Assay results published in patent US12668584B2, “Heterocyclic compounds as kinase inhibitors for therapeutic uses” (National Health Research Institutes, priority 2019, dated 2026).

Key:
[1] = test system: BaF3-CSF1R-1600 cells (express ETV6-CSF1R fusion protein); assay: MTS cell viability assay, BaF3-CSF1R-1600; format: cell-based; details: 72 h, read-out: Cellular Proliferation Assay BaF3-CSF1R GI50
How it was run: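 Cells seeded 16 h beforehand (10000 M-NFS-60 or 8000 BaF3-CSF1R-1600 per well), then exposed 72 h to test compounds in RPMI1640 with 10% FBS at 37 °C. Viability read by MTS absorbance at 490 nm; GI50 is the concentration giving 50% viability reduction versus DMSO vehicle.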

Aurora A = target: T1, Aurora A (Homo sapiens, UniProt O14965); assay: HotSpot kinase profiling, Aurora A; format: biochemical; details: HotSpot assay, 10 μM ATP; IC50 of kinase divided by that of CSF1R
T1 sequence (O14965 1-403): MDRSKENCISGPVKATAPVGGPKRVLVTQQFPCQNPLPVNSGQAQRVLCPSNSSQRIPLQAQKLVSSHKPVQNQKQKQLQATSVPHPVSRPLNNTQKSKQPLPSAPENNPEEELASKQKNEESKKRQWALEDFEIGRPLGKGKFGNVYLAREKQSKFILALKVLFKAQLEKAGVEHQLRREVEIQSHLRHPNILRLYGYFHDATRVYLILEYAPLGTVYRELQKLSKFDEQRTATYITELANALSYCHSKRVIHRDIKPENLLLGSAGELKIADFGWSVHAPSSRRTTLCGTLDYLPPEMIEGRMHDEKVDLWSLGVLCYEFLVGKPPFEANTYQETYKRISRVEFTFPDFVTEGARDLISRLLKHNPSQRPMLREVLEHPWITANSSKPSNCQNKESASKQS
Experimental: (§1) A study was conducted to determine kinase selectivity of compounds 27 and 67. More specifically, each compound was tested for inhibitory activity of CSF1R kinase, as compared to that of seven other kinases, i.e., Aurora A, Aurora B, tyrosine-protein kinase Kit (c-Kit), fms-like tyrosine kinase 3 (FLT3), platelet-derived growth factor receptor (PDGFR) A, PDGFR B, and discoidin domain receptor tyrosine kinase 1 (DDR1).
(§2) In vitro profiling of the kinase panel was performed at Reaction Biology Corporation (www.reactionbiology.com, Malvern, PA) using the “HotSpot” assay platform. Briefly, specific kinase/substrate pairs along with required cofactors were prepared in a reaction buffer containing 20 mM Hepes pH 7.5, 10 mM MgCl2, 1 mM EGTA, 0.02% Brij35, 0.02 mg/ml BSA, 0.1 mM NA3VO4, 2 mM DTT, and 1% DMSO. Compound 27 or 67 was added. 20 minutes later, a mixture of ATP (Sigma, St. Louis MO) and ^33P ATP (Perkin Elmer, Waltham MA) was added to the resulting reaction solution to give a final concentration of 10 μM. The reaction was carried out at room temperature for 120 min., followed by spotting the reaction solution onto P81 ion exchange filter paper (Whatman Inc., Piscataway, NJ). Unbound phosphate was removed by extensive washing filters in 0.75% phosphoric acid. […] Selectivity, expressed as an IC50 ratio, was determined by dividing the IC50 value of a kinase, e.g., Aurora A, by that of CSF1R.

[2] = target: T2, fms-like tyrosine kinase 3 (FLT3) (Homo sapiens, UniProt P36888); assay: HotSpot kinase profiling, FLT3; format: biochemical; details: HotSpot assay, 10 μM ATP; IC50 of kinase divided by that of CSF1R
T2 sequence (P36888 27-993): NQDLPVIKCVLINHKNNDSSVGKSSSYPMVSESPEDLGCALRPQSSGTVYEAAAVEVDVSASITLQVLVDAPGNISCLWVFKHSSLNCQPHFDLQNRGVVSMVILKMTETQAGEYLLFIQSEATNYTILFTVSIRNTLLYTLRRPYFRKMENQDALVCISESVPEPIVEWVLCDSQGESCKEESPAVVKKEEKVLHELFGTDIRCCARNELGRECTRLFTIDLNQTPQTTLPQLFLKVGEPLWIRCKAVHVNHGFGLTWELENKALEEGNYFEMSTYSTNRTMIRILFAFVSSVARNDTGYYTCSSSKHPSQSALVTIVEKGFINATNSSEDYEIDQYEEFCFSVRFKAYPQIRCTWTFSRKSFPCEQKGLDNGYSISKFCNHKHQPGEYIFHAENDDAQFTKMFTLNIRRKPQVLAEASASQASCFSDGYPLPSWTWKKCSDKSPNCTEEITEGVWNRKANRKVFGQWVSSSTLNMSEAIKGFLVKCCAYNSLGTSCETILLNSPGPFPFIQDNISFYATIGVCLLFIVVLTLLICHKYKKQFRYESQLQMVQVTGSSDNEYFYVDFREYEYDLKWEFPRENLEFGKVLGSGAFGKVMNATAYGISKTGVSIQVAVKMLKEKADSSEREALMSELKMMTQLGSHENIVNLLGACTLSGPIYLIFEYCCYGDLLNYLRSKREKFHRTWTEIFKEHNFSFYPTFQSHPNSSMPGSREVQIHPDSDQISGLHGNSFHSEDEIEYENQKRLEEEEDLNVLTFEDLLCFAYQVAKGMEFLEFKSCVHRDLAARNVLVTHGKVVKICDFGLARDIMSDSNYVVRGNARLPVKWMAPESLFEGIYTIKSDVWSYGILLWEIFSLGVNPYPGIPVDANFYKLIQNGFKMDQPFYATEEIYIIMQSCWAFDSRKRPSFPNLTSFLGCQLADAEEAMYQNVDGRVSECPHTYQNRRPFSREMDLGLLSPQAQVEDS
Experimental: as §1, §2

[3] = target: platelet-derived growth factor receptor (PDGFR) A (Homo sapiens, UniProt P16234); assay: HotSpot kinase profiling, PDGFR A; format: biochemical; details: HotSpot assay, 10 μM ATP; IC50 of kinase divided by that of CSF1R
Chain of platelet-derived growth factor receptor (PDGFR) A (P16234 24-1089): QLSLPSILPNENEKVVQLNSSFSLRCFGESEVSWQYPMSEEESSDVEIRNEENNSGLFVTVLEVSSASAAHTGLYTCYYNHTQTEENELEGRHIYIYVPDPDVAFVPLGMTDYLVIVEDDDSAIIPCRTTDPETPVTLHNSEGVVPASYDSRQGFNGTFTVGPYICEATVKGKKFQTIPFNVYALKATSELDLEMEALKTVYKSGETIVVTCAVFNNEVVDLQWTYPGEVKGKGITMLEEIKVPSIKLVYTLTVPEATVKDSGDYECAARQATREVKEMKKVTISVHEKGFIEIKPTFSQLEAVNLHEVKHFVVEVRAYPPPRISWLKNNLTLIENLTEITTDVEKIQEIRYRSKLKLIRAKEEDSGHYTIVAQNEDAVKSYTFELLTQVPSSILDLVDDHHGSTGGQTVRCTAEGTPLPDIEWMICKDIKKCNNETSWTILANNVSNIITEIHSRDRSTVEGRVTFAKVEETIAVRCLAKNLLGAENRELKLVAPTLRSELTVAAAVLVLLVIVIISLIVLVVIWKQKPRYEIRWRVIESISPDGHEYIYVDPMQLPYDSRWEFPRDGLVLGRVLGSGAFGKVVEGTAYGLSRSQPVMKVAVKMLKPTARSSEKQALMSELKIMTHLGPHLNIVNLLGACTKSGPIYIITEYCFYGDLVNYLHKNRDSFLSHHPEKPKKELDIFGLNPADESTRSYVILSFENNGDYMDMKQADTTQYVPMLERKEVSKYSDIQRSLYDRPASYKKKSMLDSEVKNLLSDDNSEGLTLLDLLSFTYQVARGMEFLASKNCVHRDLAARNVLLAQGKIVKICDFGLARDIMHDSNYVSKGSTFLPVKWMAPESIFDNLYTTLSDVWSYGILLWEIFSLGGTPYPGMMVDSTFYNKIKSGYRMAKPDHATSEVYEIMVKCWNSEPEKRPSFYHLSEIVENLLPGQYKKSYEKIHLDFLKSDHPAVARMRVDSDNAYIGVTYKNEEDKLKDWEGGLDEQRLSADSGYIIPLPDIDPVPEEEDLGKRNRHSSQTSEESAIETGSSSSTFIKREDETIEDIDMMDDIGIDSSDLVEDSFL
Experimental: as §1, §2

PDGFR B = PDGFR B (Homo sapiens, UniProt P09619); assay: HotSpot kinase profiling, PDGFR B; format: biochemical; details: HotSpot assay, 10 μM ATP; IC50 of kinase divided by that of CSF1R
Chain of PDGFR B (P09619 33-1106): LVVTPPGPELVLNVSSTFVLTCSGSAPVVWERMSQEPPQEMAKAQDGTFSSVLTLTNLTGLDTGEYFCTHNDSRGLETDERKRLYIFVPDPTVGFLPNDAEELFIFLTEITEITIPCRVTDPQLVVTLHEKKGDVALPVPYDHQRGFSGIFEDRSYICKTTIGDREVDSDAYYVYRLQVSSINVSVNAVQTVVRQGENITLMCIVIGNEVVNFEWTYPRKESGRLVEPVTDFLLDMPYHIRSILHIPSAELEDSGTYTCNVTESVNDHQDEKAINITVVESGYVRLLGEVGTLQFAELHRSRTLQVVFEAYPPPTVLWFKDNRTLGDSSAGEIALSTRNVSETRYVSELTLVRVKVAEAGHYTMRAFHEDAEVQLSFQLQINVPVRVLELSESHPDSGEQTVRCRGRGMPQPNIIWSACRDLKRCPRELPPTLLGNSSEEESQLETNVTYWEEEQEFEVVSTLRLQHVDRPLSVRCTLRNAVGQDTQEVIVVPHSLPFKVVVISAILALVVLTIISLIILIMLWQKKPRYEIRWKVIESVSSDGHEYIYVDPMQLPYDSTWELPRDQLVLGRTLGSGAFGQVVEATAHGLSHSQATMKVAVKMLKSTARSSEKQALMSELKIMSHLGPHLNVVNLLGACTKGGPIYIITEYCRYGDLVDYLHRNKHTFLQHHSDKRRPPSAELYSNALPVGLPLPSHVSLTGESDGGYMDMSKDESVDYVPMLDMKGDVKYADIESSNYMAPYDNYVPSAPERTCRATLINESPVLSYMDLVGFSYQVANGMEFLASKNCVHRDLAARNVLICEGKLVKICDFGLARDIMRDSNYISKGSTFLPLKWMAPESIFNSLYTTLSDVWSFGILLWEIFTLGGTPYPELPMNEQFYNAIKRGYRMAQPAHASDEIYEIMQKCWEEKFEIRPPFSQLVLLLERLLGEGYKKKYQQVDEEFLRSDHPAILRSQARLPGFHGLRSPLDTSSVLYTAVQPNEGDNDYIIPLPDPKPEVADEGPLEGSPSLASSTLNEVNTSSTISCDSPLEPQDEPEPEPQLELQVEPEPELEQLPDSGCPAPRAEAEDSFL
Experimental: as §1, §2

SMILES	GI50 [1] [nM]	IC50 ratio Aurora A / CSF1R (Aurora A)	IC50 ratio FLT3 / CSF1R [2]	IC50 ratio PDGFR A / CSF1R [3]	IC50 ratio PDGFR B / CSF1R (PDGFR B)
CN(C)c1ccc2c(Oc3ccc(NC(=O)NCc4ccc(C(F)(F)F)nc4)cc3)ncnc2c1 [Compound 27, 1-(4-((7-(dimethylamino)quinazolin-4-yl)oxy)phenyl)-3-((6-(trifluoromethyl)pyridin-3-yl)methyl)urea]	20 to 100	++++ (++++: IC50 ratio > 1000)	+++ (+++: 1000 > IC50 ratio > 100)	++ (++: 100 > IC50 ratio > 10)	++ (++: 100 > IC50 ratio > 10)
CN(C)c1ccc2c(Oc3ccc4c(ccn4C(=O)NCc4ccc(C(F)(F)F)nc4)c3)ncnc2c1 [Compound 67, 5-((7-(dimethylamino)quinazolin-4-yl)oxy)-N-((6-(trifluoromethyl)pyridin-3-yl)methyl)-1H-indole-1-carboxamide]	20 to 100	+++ (+++: 1000 > IC50 ratio > 100)	+++ (+++: 1000 > IC50 ratio > 100)	++ (++: 100 > IC50 ratio > 10)	+++ (+++: 1000 > IC50 ratio > 100)
